Laboratory results: ChEMBL document CHEMBL1156198 (J Med Chem, 2010)

How the values were obtained:
[1] = Oral bioavailability in CD1 mouse at 10 mg/kg; assay type: ADME, organism-based; conditions: in vivo
[2] = Terminal phase volume of distribution in CD1 mouse; assay type: ADME, organism-based; conditions: in vivo, read-out: Vbeta
[3] = Cmax in CD1 mouse at 10 mg/kg, po; assay type: ADME, organism-based; set-up: dose 10 mg/kg, route oral; conditions: in vivo
[4] = Half life in iv dosed CD1 mouse; assay type: ADME, organism-based; conditions: in vivo
[5] = AUC in CD1 mouse plasma at 30 mg/kg, po; assay type: ADME, organism-based; set-up: dose 30 mg/kg, route oral
[6] = AUC in CD1 mouse at 10 mg/kg, po; assay type: ADME, organism-based; set-up: dose 10 mg/kg, route oral; conditions: plasma
[7] = Clearance in CD1 mouse; assay type: ADME, organism-based; conditions: in vivo
[8] = AUC in CD1 mouse brain at 30 mg/kg, po; assay type: ADME, organism-based; set-up: dose 30 mg/kg, route oral
[9] = Half life in iv dosed Sprague-Dawley rat; assay type: ADME, organism-based; conditions: in vivo
[10] = Cmax in Sprague-Dawley rat at 5 mg/kg, po; assay type: ADME, organism-based; set-up: dose 5 mg/kg, route oral; conditions: in vivo
[11] = Oral bioavailability in Beagle dog at […]; assay type: ADME, organism-based, Canis lupus familiaris; conditions: in vivo
[12] = Terminal phase volume of distribution in cynomolgus monkey; assay type: ADME, organism-based, Macaca fascicularis; conditions: in vivo, read-out: Vbeta
[13] = Oral bioavailability in Sprague-Dawley rat at 5 mg/kg; assay type: ADME, organism-based; conditions: in vivo
[14] = Clearance in Beagle dog; assay type: ADME, organism-based, Canis lupus familiaris; conditions: in vivo
[15] = AUC in cynomolgus monkey at […], po; assay type: ADME, organism-based, Macaca fascicularis; set-up: dose 2.5 mg/kg, route oral; conditions: plasma
[16] = Half life in iv dosed Beagle dog; assay type: ADME, organism-based, Canis lupus familiaris; conditions: in vivo
[17] = Terminal phase volume of distribution in Beagle dog; assay type: ADME, organism-based, Canis lupus familiaris; conditions: in vivo, read-out: Vbeta
[18] = AUC in Beagle dog at […], po; assay type: ADME, organism-based, Canis lupus familiaris; set-up: dose 2.5 mg/kg, route oral; conditions: plasma
[19] = Half life in iv dosed cynomolgus monkey; assay type: ADME, organism-based, Macaca fascicularis; conditions: in vivo
[20] = Cmax in cynomolgus monkey at […], po; assay type: ADME, organism-based, Macaca fascicularis; set-up: dose 2.5 mg/kg, route oral; conditions: in vivo
[21] = AUC in Sprague-Dawley rat at 5 mg/kg, po; assay type: ADME, organism-based; set-up: dose 5 mg/kg, route oral; conditions: plasma
[22] = Oral bioavailability in cynomolgus monkey at […]; assay type: ADME, organism-based, Macaca fascicularis; conditions: in vivo
[23] = Clearance in cynomolgus monkey; assay type: ADME, organism-based, Macaca fascicularis; conditions: in vivo
[24] = Cmax in Beagle dog at […], po; assay type: ADME, organism-based, Canis lupus familiaris; set-up: dose 2.5 mg/kg, route oral; conditions: in vivo
[25] = Clearance in Sprague-Dawley rat; assay type: ADME, organism-based; conditions: in vivo
[26] = Terminal phase volume of distribution in Sprague-Dawley rat; assay type: ADME, organism-based; conditions: in vivo, read-out: Vbeta
[27] = Ratio of drug level in plasma to brain of CD1 mouse
[28] = Drug level in mouse B16F10 transplanted TMZ-treated C57BL/6 mouse plasma […] at 25 mg/kg/day, po administered from day 6 to 10 post transplantation measured after 6 hrs of final dose in presence of TMZ; assay type: ADME, organism-based, C57BL6; set-up: route oral
[29] = Drug level in mouse B16F10 cells transplanted in C57BL/6 mouse at 25 mg/kg/day, po administered from day 6 to 10 post transplantation measured after 6 hrs of final dose; assay type: ADME, organism-based, C57BL6, B16-F10; set-up: route oral; conditions: B16F10 tumour (neoplasm)
[30] = Drug level in mouse B16F10 transplanted C57BL/6 mouse plasma at 25 mg/kg/day, po administered from day 6 to 10 post transplantation measured after 6 hrs of final dose; assay type: ADME, organism-based, C57BL6; set-up: route oral

## NC(=O)c1cccc2[nH]c(-c3ccc([C@H]4CCCCN4)cc3F)nc12
[1]
  bioavailability: 100%
[2]
  Vd: 15 L/kg
[3]
  Cmax: 300 ng/mL
[4]
  half-life: 1.4 h
[5]
  AUC: 5800 ng·h/mL
[6]
  AUC: 1600 ng·h/mL
[7]
  clearance: 122 mL/min/kg
[8]
  AUC: 6300 ng·h/mL

## NC(=O)c1cccc2[nH]c(-c3ccc([C@@H]4CCCCN4)cc3F)nc12
[1]
  bioavailability: 63%
[9]
  half-life: 4.5 h
[10]
  Cmax: 200 ng/mL
[11]
  bioavailability: 39%
[12]
  Vd: 15 L/kg
[2]
  Vd: 6.6 L/kg
[13]
  bioavailability: 80%
[14]
  clearance: 56.7 mL/min/kg
[15]
  AUC: 750 ng·h/mL
[16]
  half-life: 2 h
[17]
  Vd: 9.3 L/kg
[3]
  Cmax: 500 ng/mL
[18]
  AUC: 300 ng·h/mL
[4]
  half-life: 1.3 h
[19]
  half-life: 5 h
[20]
  Cmax: 100 ng/mL
[21]
  AUC: 1800 ng·h/mL
[22]
  bioavailability: 61%
[23]
  clearance: 36.7 mL/min/kg
[24]
  Cmax: 100 ng/mL
[5]
  AUC: 9900 ng·h/mL
[6]
  AUC: 1700 ng·h/mL
[25]
  clearance: 38.3 mL/min/kg
[26]
  Vd: 14 L/kg
[7]
  clearance: 60 mL/min/kg
[8]
  AUC: 9100 ng·h/mL

## NC(=O)c1cccc2[nH]c(-c3ccc([C@H]4CCCN4)cc3F)nc12
[1]
  bioavailability: 36%
[2]
  Vd: 4.6 L/kg
[27]
  Kp: 2
[3]
  Cmax: 500 ng/mL
[4]
  half-life: 0.9 h
[5]
  AUC: 4200 ng·h/mL
[6]
  AUC: 1000 ng·h/mL
[7]
  clearance: 60 mL/min/kg
[8]
  AUC: 1800 ng·h/mL

## NC(=O)c1cccc2[nH]c(-c3ccc([C@@H]4CCCN4)cc3F)nc12
[1]
  bioavailability: 36%
[9]
  half-life: 1.9 h
[10]
  Cmax: 300 ng/mL
[11]
  bioavailability: 72%
[12]
  Vd: 9.2 L/kg
[2]
  Vd: 3.3 L/kg
[13]
  bioavailability: 55%
[14]
  clearance: 28.3 mL/min/kg
[27]
  Kp: 2
[15]
  AUC: 200 ng·h/mL
[16]
  half-life: 1.7 h
[28]
  concentration at 6 h: 380 ng/mL
[17]
  Vd: 3.6 L/kg
[3]
  Cmax: 600 ng/mL
[18]
  AUC: 1100 ng·h/mL
[4]
  half-life: 0.8 h
[19]
  half-life: 1.8 h
[20]
  Cmax: 30 ng/mL
[21]
  AUC: 1700 ng·h/mL
[22]
  bioavailability: 34%
[23]
  clearance: 68.3 mL/min/kg
[24]
  Cmax: 500 ng/mL
[29]
  concentration at 6 h: 17200 ng/mL
[5]
  AUC: 9800 ng·h/mL
[6]
  AUC: 1200 ng·h/mL
[25]
  clearance: 28.3 mL/min/kg
[30]
  concentration at 6 h: 220 ng/mL
[26]
  Vd: 4.1 L/kg
[7]
  clearance: 48.3 mL/min/kg
[8]
  AUC: 4200 ng·h/mL
